Biological target: T1, intestinal SGLT1 (Mus musculus, UniProt Q8C3K6)
T1 construct: from tissue; host or cells: small intestine of living male C57BL/6-Tyrc-Brd mice
T1 sequence (Q8C3K6 1-665): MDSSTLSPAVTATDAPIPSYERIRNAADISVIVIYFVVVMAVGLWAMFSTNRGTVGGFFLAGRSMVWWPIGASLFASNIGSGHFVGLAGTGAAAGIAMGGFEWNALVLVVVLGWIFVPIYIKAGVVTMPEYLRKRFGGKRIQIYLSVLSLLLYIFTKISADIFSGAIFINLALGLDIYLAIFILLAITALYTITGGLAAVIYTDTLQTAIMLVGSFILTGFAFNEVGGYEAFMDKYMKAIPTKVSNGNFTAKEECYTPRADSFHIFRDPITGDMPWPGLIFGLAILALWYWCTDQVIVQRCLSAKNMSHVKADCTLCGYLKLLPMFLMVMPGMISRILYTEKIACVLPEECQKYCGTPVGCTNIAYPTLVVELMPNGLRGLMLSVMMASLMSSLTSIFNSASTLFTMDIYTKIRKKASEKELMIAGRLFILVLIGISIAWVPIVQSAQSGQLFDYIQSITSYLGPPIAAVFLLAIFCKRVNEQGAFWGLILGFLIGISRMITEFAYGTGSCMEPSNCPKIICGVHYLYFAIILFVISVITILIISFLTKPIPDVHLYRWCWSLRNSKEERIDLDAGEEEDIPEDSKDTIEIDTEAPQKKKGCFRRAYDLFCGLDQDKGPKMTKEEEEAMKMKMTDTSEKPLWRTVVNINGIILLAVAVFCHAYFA
Assay: Glucose-containing meal challenge in C57 mice
Format: in vivo
Description: A meal consisting of low-fat diet (10% kcal as fat, D12450B; Research Diets, New Brunswick, NJ) supplemented with glucose was prepared by adding 50 g of low-fat diet powder and 9.4 g of glucose to water with a final volume of 94 mL. At 8:30 am, C57 mice in the fed state received either vehicle or 50 mg/kg LP-925219 by oral gavage; 30 min later, at Time = 0, each mouse received 25 mL/kg of the above meal (9.2 g/kg glucose, 2.5 g/kg protein, 0.6 g/kg fat) by oral gavage as described previously (Powell et al. [2013b]). Blood obtained from unanesthetized mice at 0, 10, and 30 min by tail nick, and at 60 min by retro-orbital bleed, was assayed for whole blood glucose using an Accu-Chek Aviva glucometer (Roche Diagnostics, Indianapolis, IN). The blood obtained at 60 min was also used to measure circulating levels of total GLP-1 (tGLP-1; Glucagon-Like Peptide-1 Total ELISA Kit, catalog #EZGLP1T-36K, EMD Millipore, Billerica, MA) as described previously (Powell et al. [2013b]). After their blood was drawn at 60 min, mice were anesthetized with isoflurane (TW Medical Veterinary Supply, Lago Vista, TX) and then euthanized by cervical dislocation. Cecal contents were then collected and analyzed for glucose and pH as described previously (Powell et al. [2013b]). Blood glucose time-course data were converted to area under the curve (AUC) values by trapezoidal summation using GraphPad Prism v4.03.
Mice received either vehicle or LP-925219 at a dose of 50 mg/kg (n = 5 for each group) by oral gavage; 30 min later the mice received, by oral gavage at Time 0, a glucose-containing meal challenge. (A) Blood glucose levels were measured at 0, 10, 30, and 60 min; for each mouse, blood glucose levels were used to calculate an AUC value for statistical analysis. At 60 min, blood was obtained for (B) tGLP-1 levels, and cecal contents were obtained and assayed for (C) cecal glucose and (D) cecal pH. LP-925219-treated value different from vehicle, *P < 0.05, **P < 0.01, ***P < 0.001. AUC, area under the curve.

[1] = 50 mg/kg oral gavage, 60 min after meal, vs vehicle

COc1ccc(Cc2cc([C@@H]3O[C@H](SC)[C@@H](O)[C@H](O)[C@H]3O)ccc2Cl)cc1 [LP-925219]
blood glucose AUC after meal challenge (50 mg/kg oral gavage 30 min before meal, 0-60 min, vs vehicle, P < 0.05): significant decrease
cecal glucose [1]: more glucose
cecal pH [1]: lower pH
circulating total GLP-1 [1]: increased levels
diarrhea (50 mg/kg oral gavage, short-term study): not observed

Source: paper PMC4448982, “LP-925219 maximizes urinary glucose excretion in mice by inhibiting both renal SGLT1 and SGLT2” (Pharmacology Research & Perspectives, 2015)
